Columns and labels:
HBV in 2.2.15 cells = test: 2.2.15 cells: viral product in cell lysates quantified via quantitative real time PCR; type: cell-based, hepatitis B virus (HBV); settings: Hepatitis B virus, 120 h, day 5 post treatment, 50% reduction of viral product vs no drug controls, readout (qPCR, HBsAg or HBeAg) not specified for the column
In short: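 2.2.15 cells (35,000/well, DMEM/F12, 10% FBS, G418) were treated with 5-fold serial compound dilutions, 0.5% DMSO final. After 5 days, lysates were quantified by qPCR, or supernatant HBsAg/HBeAg by ELISA; EC50 is the concentration giving 50% reduction versus no-drug controls.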

[1] = Compound induced cellular toxicity in HepG2 cells, ATPlite 1Step; type: cell-based; settings: human, three days exposure, 50% reduction of total ATP vs no drug controls
Description: At day 3, post seeding cells are treated with ATPlite 1Step according to the manufacturer's instructions.

For `CC(C)(C)[C@@H]1Cn2nc(-c3ccccc3OC(F)(F)F)cc2-c2cc(=O)c(C(=O)O)cn21` [Example 24, (R)-6-(tert-butyl)-10-oxo-2-(2-(trifluoromethoxy)phenyl)-5,6-dihydro-10H-pyrazolo[1,5-a]pyrido[2,2-c]pyrazine-12-carboxylic acid], the EC50 (HBV in 2.2.15 cells) was under 100 nM and the CC50 at 3 days [1] was over 25 µM.

Work on `CC(C)(C)[C@@H]1Cn2ncc(-c3ccc(F)c(F)c3)c2-c2cc(=O)c(C(=O)O)cn21` [Example 110, (R)-6-(tert-butyl)-1-(3,4-difluorophenyl)-10-oxo-5,6-dihydro-10H-pyrazolo[1,5-a]pyrido[2,1-c]pyrazine-9-carboxylic acid] yielded an EC50 (HBV in 2.2.15 cells) of under 100 nM and a CC50 at 3 days [1] of under 10 µM.

With `CC(C)(C)[C@@H]1Cn2nc(-c3ccccc3CO)cc2-c2cc(=O)c(C(=O)O)cn21` [Example 84, (R)-6-(tert-butyl)-2-(2-(hydroxymethyl)phenyl)-10-oxo-5,6-dihydro-10H-pyrazolo[1,5-a]pyrido[2,2-c]pyrazine-12-carboxylic acid] the EC50 (HBV in 2.2.15 cells) was 200 to 1000 nM and the CC50 at 3 days [1] was over 25 µM.

In the case of `CC(C)c1ccccc1-c1cc2n(n1)C[C@@H](C(C)(C)C)n1cc(C(=O)O)c(=O)cc1-2` [Example 83, (R)-6-(tert-butyl)-2-(2-isopropylphenyl)-10-oxo-5,6-dihydro-10H-pyrazolo[1,5-a]pyrido[2,2-c]pyrazine-12-carboxylic acid], the EC50 (HBV in 2.2.15 cells) is reported as 200 to 1000 nM and the CC50 at 3 days [1] is reported as over 25 µM.

`CC(C)[C@@H]1Cn2nc(-c3ccc(F)cc3)c(-c3ccc(F)cc3)c2-c2c(F)c(=O)c(C(=O)O)cn21` [Example 187, (R)-11-fluoro-1,2-bis(4-fluorophenyl)-6-isopropyl-10-oxo-5,6-dihydro-10H-pyrazolo[1,5-a]pyrido[2,1-c]pyrazine-9-carboxylic acid] showed an EC50 (HBV in 2.2.15 cells) of under 100 nM and a CC50 at 3 days [1] of 10 to 25 µM.

`CCOc1cc(F)ccc1-c1cc2n(n1)C[C@@H](C(C)(C)C)n1cc(C(=O)O)c(=O)cc1-2` [Example 72, (R)-6-(tert-butyl)-2-(2-ethoxy-4-fluorophenyl)-10-oxo-5,6-dihydro-10H-pyrazolo[1,5-a]pyrido[2,2-c]pyrazine-12-carboxylic acid] gave an EC50 (HBV in 2.2.15 cells) of under 100 nM and a CC50 at 3 days [1] of over 25 µM.

Work on `CCOc1ccc(F)cc1-c1cc2n(n1)C[C@@H](C(C)(C)C)n1cc(C(=O)O)c(=O)cc1-2` [Example 73, (R)-6-(tert-butyl)-2-(2-ethoxy-5-fluorophenyl)-10-oxo-5,6-dihydro-10H-pyrazolo[1,5-a]pyrido[2,2-c]pyrazine-12-carboxylic acid] yielded an EC50 (HBV in 2.2.15 cells) of under 100 nM and a CC50 at 3 days [1] of over 25 µM.

With `CC(C)(C)[C@@H]1Cn2ncc(-c3ccccc3OC(F)(F)F)c2-c2cc(=O)c(C(=O)O)cn21` [Example 115, (R)-6-(tert-butyl)-10-oxo-1-(2-(trifluoromethoxy)phenyl)-5,6-dihydro-10H-pyrazolo[1,5-a]pyrido[2,1-c]pyrazine-9-carboxylic acid] the EC50 (HBV in 2.2.15 cells) was under 100 nM and the CC50 at 3 days [1] was over 25 µM.

In the case of `CC(C)(C)[C@@H]1Cn2nc(-c3ccc(F)nc3)cc2-c2cc(=O)c(C(=O)O)cn21` [Example 38, (R)-6-(tert-butyl)-2-(6-fluoropyridin-3-yl)-10-oxo-5,6-dihydro-10H-pyrazolo[1,5-a]pyrido[2,2-c]pyrazine-12-carboxylic acid], the EC50 (HBV in 2.2.15 cells) is reported as under 100 nM and the CC50 at 3 days [1] is reported as over 25 µM.

With `CC(C)(C)[C@@H]1Cn2nc(C3CC3)c(-c3ccc(F)c(F)c3)c2-c2cc(=O)c(C(=O)O)cn21` [Example 151, (R)-6-(tert-butyl)-2-cyclopropyl-1-(3,4-difluorophenyl)-10-oxo-5,6-dihydro-10H-pyrazolo[1,5-a]pyrido[2,1-c]pyrazine-9-carboxylic acid] the EC50 (HBV in 2.2.15 cells) was under 100 nM and the CC50 at 3 days [1] was over 25 µM.

`Cc1cccc(-c2c(C3CC3)nn3c2-c2cc(=O)c(C(=O)O)cn2[C@H](C(C)(C)C)C3)c1` [Example 153, (R)-6-(tert-butyl)-2-cyclopropyl-10-oxo-1-(m-tolyl)-5,6-dihydro-10H-pyrazolo[1,5-a]pyrido[2,1-c]pyrazine-9-carboxylic acid] showed an EC50 (HBV in 2.2.15 cells) of under 100 nM and a CC50 at 3 days [1] of 10 to 25 µM.

In the case of `CC(C)(C)[C@@H]1Cn2nc(-c3ccc(Cl)cc3)cc2-c2cc(=O)c(C(=O)O)cn21` [Example 13, (R)-6-(tert-butyl)-2-(4-chlorophenyl)-10-oxo-5,6-dihydro-10H-pyrazolo[1,5-a]pyrido[2,2-c]pyrazine-12-carboxylic acid], the EC50 (HBV in 2.2.15 cells) is reported as under 100 nM and the CC50 at 3 days [1] is reported as over 25 µM.

Work on `CC(C)(C)[C@@H]1Cn2nc(-c3cccc(OC(F)(F)F)c3)cc2-c2cc(=O)c(C(=O)O)cn21` [Example 17, (R)-6-(tert-butyl)-10-oxo-2-(3-(trifluoromethoxy)phenyl)-5,6-dihydro-10H-pyrazolo[1,5-a]pyrido[2,2-c]pyrazine-12-carboxylic acid] yielded an EC50 (HBV in 2.2.15 cells) of under 100 nM and a CC50 at 3 days [1] of over 25 µM.

In the case of `CC(C)(C)[C@@H]1Cn2nc(-c3ccc(F)cc3)c(-c3ccc(F)cc3)c2-c2cc(=O)c(C(=O)O)cn21` [Example 91, (R)-6-(tert-butyl)-1,2-bis(4-fluorophenyl)-10-oxo-5,6-dihydro-10H-pyrazolo[1,5-a]pyrido[2,1-c]pyrazine-9-carboxylic acid], the EC50 (HBV in 2.2.15 cells) is reported as under 100 nM and the CC50 at 3 days [1] is reported as over 25 µM.

With `COc1cccc(-c2cc3n(n2)C[C@@H](C(C)(C)C)n2cc(C(=O)O)c(=O)cc2-3)c1OC` [Example 23, (R)-6-(tert-butyl)-2-(2,3-dimethoxyphenyl)-10-oxo-5,6-dihydro-10H-pyrazolo[1,5-a]pyrido[2,2-c]pyrazine-12-carboxylic acid] the EC50 (HBV in 2.2.15 cells) was 200 to 1000 nM and the CC50 at 3 days [1] was over 25 µM.

Work on `CCOc1ccccc1-c1cc2n(n1)C[C@@H](C(C)(C)C)n1cc(C(=O)O)c(=O)cc1-2` [Example 48, (R)-6-(tert-butyl)-2-(2-ethoxyphenyl)-10-oxo-5,6-dihydro-10H-pyrazolo[1,5-a]pyrido[2,2-c]pyrazine-12-carboxylic acid] yielded an EC50 (HBV in 2.2.15 cells) of under 100 nM and a CC50 at 3 days [1] of over 25 µM.

For `CCOc1ccccc1-c1nc2n(n1)C[C@@H](C(C)(C)C)n1cc(C(=O)O)c(=O)cc1-2` [Example 86, (R)-6-(tert-butyl)-2-(2-ethoxyphenyl)-10-oxo-5,6-dihydro-10H-pyrido[1,2-a][1,2,4]triazolo[5,2-c]pyrazine-12-carboxylic acid], the EC50 (HBV in 2.2.15 cells) was under 100 nM and the CC50 at 3 days [1] was over 25 µM.

In the case of `CC(C)(C)[C@@H]1Cn2nc(-c3ccoc3)cc2-c2cc(=O)c(C(=O)O)cn21` [Example 4, (R)-6-(tert-butyl)-2-(furan-3-yl)-10-oxo-5,6-dihydro-10H-pyrazolo[1,5-a]pyrido[2,2-c]pyrazine-12-carboxylic acid], the EC50 (HBV in 2.2.15 cells) is reported as 200 to 1000 nM and the CC50 at 3 days [1] is reported as over 25 µM.

`CC(C)(C)[C@@H]1Cn2nc(-c3ccccc3O)cc2-c2cc(=O)c(C(=O)O)cn21` [Example 46, (R)-6-(tert-butyl)-2-(2-hydroxyphenyl)-10-oxo-5,6-dihydro-10H-pyrazolo[1,5-a]pyrido[2,2-c]pyrazine-12-carboxylic acid] gave an EC50 (HBV in 2.2.15 cells) of under 100 nM and a CC50 at 3 days [1] of over 25 µM.

`CC(C)(C)[C@@H]1Cn2ncc(-c3ccc(F)cc3F)c2-c2cc(=O)c(C(=O)O)cn21` [Example 100, (R)-6-(tert-butyl)-1-(2,4-difluorophenyl)-10-oxo-5,6-dihydro-10H-pyrazolo[1,5-a]pyrido[2,1-c]pyrazine-9-carboxylic acid] gave an EC50 (HBV in 2.2.15 cells) of under 100 nM and a CC50 at 3 days [1] of over 25 µM.

With `CC(C)(C)[C@@H]1Cn2nc(C3CC3)c(-c3cccc(F)c3)c2-c2cc(=O)c(-c3ncn[nH]3)cn21` [Example 197, (R)-6-(tert-butyl)-2-cyclopropyl-1-(3-fluorophenyl)-9-(1H-1,2,4-triazol-5-yl)-5,6-dihydro-10H-pyrazolo[1,5-a]pyrido[2,1-c]pyrazin-10-one] the EC50 (HBV in 2.2.15 cells) was under 100 nM and the CC50 at 3 days [1] was over 25 µM.

Work on `COc1ccc(-c2cnn3c2-c2cc(=O)c(C(=O)O)cn2[C@H](C(C)(C)C)C3)cc1` [Example 114, (R)-6-(tert-butyl)-1-(4-methoxyphenyl)-10-oxo-5,6-dihydro-10H-pyrazolo[1,5-a]pyrido[2,1-c]pyrazine-9-carboxylic acid] yielded an EC50 (HBV in 2.2.15 cells) of under 100 nM and a CC50 at 3 days [1] of over 25 µM.

For `CC(C)(C)[C@@H]1Cn2nc(-c3cnco3)cc2-c2cc(=O)c(C(=O)O)cn21` [Example 7, (R)-6-(tert-butyl)-2-(oxazol-5-yl)-10-oxo-5,6-dihydro-10H-pyrazolo[1,5-a]pyrido[2,2-c]pyrazine-12-carboxylic acid], the EC50 (HBV in 2.2.15 cells) was 200 to 1000 nM and the CC50 at 3 days [1] was over 25 µM.

`CC(C)(C)[C@@H]1Cn2nc(C3CC3)c(-c3ccccc3F)c2-c2cc(=O)c(-c3ncn[nH]3)cn21` [Example 198, (R)-6-(tert-butyl)-2-cyclopropyl-1-(2-fluorophenyl)-9-(1H-1,2,4-triazol-5-yl)-5,6-dihydro-10H-pyrazolo[1,5-a]pyrido[2,1-c]pyrazin-10-one] gave an EC50 (HBV in 2.2.15 cells) of under 100 nM and a CC50 at 3 days [1] of over 25 µM.

In the case of `Cc1cccc(C)c1-c1cc2n(n1)C[C@@H](C(C)(C)C)n1cc(C(=O)O)c(=O)cc1-2` [Example 62, (R)-6-(tert-butyl)-2-(2,6-dimethylphenyl)-10-oxo-5,6-dihydro-10H-pyrazolo[1,5-a]pyrido[2,2-c]pyrazine-12-carboxylic acid], the EC50 (HBV in 2.2.15 cells) is reported as 200 to 1000 nM and the CC50 at 3 days [1] is reported as over 25 µM.

In the case of `CC(C)(C)[C@@H]1Cn2nc(C3CC3)c(-c3ccc(F)cc3)c2-c2cc(=O)c(-c3ncn[nH]3)cn21` [Example 196, (R)-6-(tert-butyl)-2-cyclopropyl-1-(4-fluorophenyl)-9-(1H-1,2,4-triazol-5-yl)-5,6-dihydro-10H-pyrazolo[1,5-a]pyrido[2,1-c]pyrazin-10-one], the EC50 (HBV in 2.2.15 cells) is reported as under 100 nM and the CC50 at 3 days [1] is reported as over 25 µM.

`CC(C)(C)[C@@H]1Cn2nc(-c3cccc4nsnc34)cc2-c2cc(=O)c(C(=O)O)cn21` [Example 63, (R)-2-(benzo[c][1,2,5]thiadiazol-4-yl)-6-(tert-butyl)-10-oxo-5,6-dihydro-10H-pyrazolo[1,5-a]pyrido[2,2-c]pyrazine-12-carboxylic acid] gave an EC50 (HBV in 2.2.15 cells) of under 100 nM and a CC50 at 3 days [1] of over 25 µM.
